# In BindingDB's records for doi:10.1021/acs.jmedchem.9b00963 (Hong Kong Polytechnic University, 2019):
# Assays:
# [1] = Inhibition of BCRP (unknown origin) transfected in HEK293/R2 cells assessed as reversal of topotecan resistance after 5 days by MTS/PMS assay
# [2] = Inhibition of P-gp (unknown origin) expressed in human LCC6MDR cells assessed as reversal of paclitaxel resistance after 5 days by MTS/PMS assay
# [3] = Inhibition of BCRP in human MCF7/MX100 cells assessed as reversal of topotecan resistance after 5 days by MTS/PMS assay
Structure (SMILES),EC50 [1],EC50 [2],EC50 [3]
O=c1cc(-c2ccc(OCCOCCOCCn3cc(COCCOc4ccc5c(=O)cc(-c6ccccc6)oc5c4)nn3)cc2)oc2ccccc12,303 nM,963 nM,340 nM
O=c1cc(-c2ccccc2)oc2cc(OCCN(Cc3ccccc3)Cc3cn(CCOCCOCCOc4ccc(-c5oc6ccccc6c(=O)c5OCc5ccccc5)cc4)nn3)ccc12,156 nM,983 nM,69 nM
O=c1cc(-c2ccc(OCCOCCn3cc(CCCOc4ccc5c(=O)cc(-c6ccccc6)oc5c4)nn3)cc2)oc2ccccc12,67 nM,300 nM,30 nM
COC(=O)c1cccc(COc2c(-c3ccc(OCCOCCn4cc(CN(Cc5ccncc5)Cc5cn(CCOCCOc6ccc(-c7oc8ccccc8c(=O)c7OCc7cccc(C(=O)OC)c7)cc6)nn5)nn4)cc3)oc3ccccc3c2=O)c1,49 nM,> 1000 nM,25 nM
O=c1cc(-c2ccccc2)oc2cc(OCCCc3cn(CCOCCOCCOc4ccc5c(=O)cc(-c6ccccc6)oc5c4)nn3)ccc12,57 nM,515 nM,177 nM
O=c1cc(-c2ccccc2)oc2cc(OCCN(Cc3ccccc3)Cc3cn(CCOCCOc4ccc(-c5cc(=O)c6cc(F)ccc6o5)cc4)nn3)ccc12,48 nM,285 nM,54 nM
Cc1ccc2oc(-c3ccc(OCCOCCOCCn4cc(COCCOc5ccc6c(=O)cc(-c7ccccc7)oc6c5)nn4)cc3)cc(=O)c2c1,90 nM,773 nM,145 nM
COC(=O)c1cccc(COc2c(-c3ccc(OCCOCCn4cc(CN5CCCN(Cc6cn(CCOCCOc7ccc(-c8oc9ccccc9c(=O)c8OCc8cccc(C(=O)OC)c8)cc7)nn6)CC5)nn4)cc3)oc3ccccc3c2=O)c1,108 nM,573 nM,55 nM
O=c1cc(-c2ccc(OCCOCCn3cc(CCCCOc4ccc5c(=O)cc(-c6ccccc6)oc5c4)nn3)cc2)oc2ccccc12,52 nM,321 nM,25 nM
O=c1cc(-c2ccccc2)oc2cc(OCCOCCn3cc(CN(Cc4ccccc4)Cc4cn(CCOCCOc5ccc6c(=O)cc(-c7ccccc7)oc6c5)nn4)nn3)ccc12,153 nM,> 1000 nM,278 nM
COC(=O)c1cccc(COc2c(-c3ccc(OCCOCCn4cc(CN(C)CCN(C)Cc5cn(CCOCCOc6ccc(-c7oc8ccccc8c(=O)c7OCc7cccc(C(=O)OC)c7)cc6)nn5)nn4)cc3)oc3ccccc3c2=O)c1,133 nM,> 1000 nM,84 nM
O=c1cc(-c2ccccc2)oc2cc(OCCCc3cn(CCOCCOCCOc4ccc(-c5oc6ccccc6c(=O)c5OCc5ccccc5)cc4)nn3)ccc12,60 nM,259 nM,78 nM
Cc1ccc2oc(-c3ccc(OCCCCc4cn(CCOCCOCCOc5ccc(-c6cc(=O)c7cc(C)ccc7o6)cc5)nn4)cc3)cc(=O)c2c1,54 nM,526 nM,230 nM
O=c1cc(-c2ccccc2)oc2cc(OCCn3cc(CN(Cc4ccccc4)Cc4cn(CCOc5ccc6c(=O)cc(-c7ccccc7)oc6c5)nn4)nn3)ccc12,243 nM,> 1000 nM,485 nM
O=c1cc(-c2ccc(OCCOCCn3cc(CN(CCOc4ccc5c(=O)cc(-c6ccccc6)oc5c4)Cc4ccccc4)nn3)cc2)oc2ccccc12,86 nM,630 nM,205 nM
Cc1ccc2oc(-c3ccc(OCCCCc4cn(CCOCCOc5ccc(-c6cc(=O)c7ccccc7o6)cc5)nn4)cc3)cc(=O)c2c1,67 nM,370 nM,33 nM

# Further lines, results first:
EC50 [1],EC50 [2],EC50 [3],Structure (SMILES)
47 nM,288 nM,94 nM,O=c1cc(-c2ccccc2)oc2cc(OCCCCc3cn(CCOCCOCCOc4ccc5c(=O)cc(-c6ccccc6)oc5c4)nn3)ccc12
2.4 nM,> 1000 nM,14 nM,COC(=O)c1cccc(COc2c(-c3ccc(OCCOCCOCCn4cc(-c5ccc(-c6cn(CCOCCOCCOc7ccc(-c8oc9ccccc9c(=O)c8OCc8cccc(C(=O)OC)c8)cc7)nn6)cc5)nn4)cc3)oc3ccccc3c2=O)c1
38 nM,383 nM,25 nM,O=c1cc(-c2ccccc2)oc2cc(OCCOCc3cn(CCOCCOCCOc4ccc(-c5oc6ccccc6c(=O)c5OCc5ccccc5)cc4)nn3)ccc12
2.8 nM,> 1000 nM,13 nM,COC(=O)c1cccc(COc2c(-c3ccc(OCCOCCOCCn4cc(-c5cccc(-c6cn(CCOCCOCCOc7ccc(-c8oc9ccccc9c(=O)c8OCc8cccc(C(=O)OC)c8)cc7)nn6)c5)nn4)cc3)oc3ccccc3c2=O)c1
47 nM,360 nM,18 nM,O=c1cc(-c2ccc(OCCOCCOCCn3cc(CCCCOc4ccc5c(=O)cc(-c6ccccc6)oc5c4)nn3)cc2)oc2ccccc12
18 nM,683 nM,19 nM,COC(=O)c1cccc(COc2c(-c3ccc(OCCOCCn4cc(CN5CCN(Cc6cn(CCOCCOc7ccc(-c8oc9ccccc9c(=O)c8OCc8cccc(C(=O)OC)c8)cc7)nn6)CC5)nn4)cc3)oc3ccccc3c2=O)c1
24 nM,422 nM,20 nM,Cc1ccc2oc(-c3ccc(OCCCCc4cn(CCOCCOCCOc5ccc(-c6oc7ccccc7c(=O)c6OCc6ccccc6)cc5)nn4)cc3)cc(=O)c2c1
3.5 nM,414 nM,7 nM,COC(=O)c1cccc(COc2c(-c3ccc(OCCOCCOCCn4cc(CCCOc5ccc6c(=O)cc(-c7ccccc7)oc6c5)nn4)cc3)oc3ccccc3c2=O)c1
42 nM,490 nM,22 nM,O=c1cc(-c2ccccc2)oc2cc(OCCCc3cn(CCOCCOc4ccc5c(=O)cc(-c6ccccc6)oc5c4)nn3)ccc12
6.4 nM,69 nM,7.9 nM,O=c1cc(-c2ccc(OCCCc3cn(CCOCCOc4ccc5c(=O)cc(-c6ccccc6)oc5c4)nn3)cc2)oc2cc(F)ccc12
3.3 nM,> 1000 nM,4.3 nM,COC(=O)c1cccc(COc2c(-c3ccc(OCCOCCOCCn4cc(CN(Cc5ccccc5)Cc5cn(CCOCCOCCOc6ccc(-c7oc8ccccc8c(=O)c7OCc7cccc(C(=O)OC)c7)cc6)nn5)nn4)cc3)oc3ccccc3c2=O)c1
35 nM,278 nM,16 nM,O=c1cc(-c2ccccc2)oc2cc(OCCCCc3cn(CCOCCOCCOc4ccc(-c5oc6ccccc6c(=O)c5OCc5ccccc5)cc4)nn3)ccc12
38 nM,328 nM,98 nM,O=c1cc(-c2ccccc2)oc2cc(OCCCc3cn(CCOCCOCCOc4ccc(-c5cc(=O)c6cc(F)ccc6o5)cc4)nn3)ccc12
3.1 nM,161 nM,4 nM,O=c1cc(-c2ccc(OCCCc3cn(CCOCCOCCOc4ccc(-c5cc(=O)c6cc(F)ccc6o5)cc4)nn3)cc2)oc2cc(F)ccc12
28 nM,89 nM,27 nM,O=c1cc(-c2ccc(OCCCc3cn(CCOCCOCCOc4ccc5c(=O)cc(-c6ccccc6)oc5c4)nn3)cc2)oc2cc(F)ccc12
9.6 nM,481 nM,6.5 nM,COC(=O)c1cccc(COc2c(-c3ccc(OCCOCCn4cc(CCCOc5ccc(-c6cc(=O)c7ccc(F)cc7o6)cc5)nn4)cc3)oc3ccccc3c2=O)c1
